In the CheMixHub viscosity set:

Experiment: xn = mol fraction of the nth substance listed

C=COCCCC + COC(=O)c1ccccc1
viscosity [mPa·s], 100 kPa
Details | x2 = 0.0898 | x2 = 0.1468 | x2 = 0.228 | x2 = 0.3145 | x2 = 0.4054 | x2 = 0.5056 | x2 = 0.6161 | x2 = 0.7316 | x2 = 0.8597
303.15 K | 0.437 | 0.497 | 0.571 | 0.657 | 0.761 | 0.891 | 1.038 | 1.205 | 1.422
308.15 K | 0.421 | 0.478 | 0.546 | – | – | – | 0.974 | 1.124 | 1.319
313.15 K | 0.4 | 0.452 | 0.515 | 0.585 | 0.671 | 0.778 | 0.897 | 1.034 | 1.205

O=[N+]([O-])c1ccccc1 + C1COCCO1
303.15 K, 101 kPa
Details | viscosity [mPa·s]
x1 = 0.0852 | 1.058
x1 = 0.1732 | 1.058
x1 = 0.265 | 1.087
x1 = 0.3592 | 1.107
x1 = 0.4563 | 1.148
x1 = 0.5574 | 1.212
x1 = 0.6625 | 1.274
x1 = 0.7711 | 1.369
x1 = 0.8829 | 1.47

CCCCCCCCCCCCCC + CCCCCCCCCCCCCCCC
293.15 K, 101.33 kPa
Details | viscosity [mPa·s]
x1 = 0.276 | 3.067
x1 = 0.533 | 2.789
x1 = 0.773 | 2.529

C1CCC2CCCCC2C1 (configuration not stated) + CC(C)CC(C)(C)C
viscosity [mPa·s], 101 kPa
Details | x2 = 0.1031 | x2 = 0.1995 | x2 = 0.299 | x2 = 0.4001 | x2 = 0.5004 | x2 = 0.6002 | x2 = 0.6994 | x2 = 0.8002 | x2 = 0.899
293.15 K | 2.019 | 1.701 | 1.435 | 1.203 | 1.026 | 0.876 | 0.758 | 0.656 | 0.571
298.15 K | 1.842 | 1.561 | 1.323 | 1.114 | 0.955 | 0.818 | 0.711 | 0.62 | 0.54
303.15 K | 1.688 | 1.436 | 1.223 | 1.034 | 0.89 | 0.765 | 0.667 | 0.581 | 0.509
308.15 K | 1.553 | 1.327 | 1.135 | 0.963 | 0.831 | 0.717 | 0.627 | 0.547 | 0.482
313.15 K | 1.434 | 1.23 | 1.056 | 0.905 | 0.778 | 0.673 | 0.59 | 0.516 | 0.456
318.15 K | 1.328 | 1.142 | 0.983 | 0.838 | 0.727 | 0.63 | 0.552 | 0.483 | 0.425
323.15 K | 1.234 | 1.066 | 0.921 | 0.788 | 0.686 | 0.597 | 0.525 | 0.461 | 0.408

CCCCCO + CO
298.15 K, 101.33 kPa
Details | viscosity [mPa·s]
x2 = 0.1748 | 2.71
x2 = 0.2198 | 2.528
x2 = 0.327 | 2.143
x2 = 0.4302 | 1.813
x2 = 0.5186 | 1.57
x2 = 0.5951 | 1.372
x2 = 0.652 | 1.236
x2 = 0.7911 | 0.932
x2 = 0.8761 | 0.77

CCCCCO + CCCCO
viscosity [mPa·s], 101.33 kPa
Details | x2 = 0.1315 | x2 = 0.278 | x2 = 0.4762 | x2 = 0.5662 | x2 = 0.8222 | x2 = 0.9381
293.15 K | 3.867 | 3.7 | 3.489 | 3.392 | 3.127 | 3.013
298.15 K | 3.353 | 3.232 | 3.038 | 2.959 | 2.738 | 2.642

CCCCCO + C1CCCCC1
Details | viscosity [mPa·s]
293.15 K, 100 kPa, x2 = 0.0815 | 3.56
293.15 K, 100 kPa, x2 = 0.1623 | 3.17
293.15 K, 100 kPa, x2 = 0.2416 | 2.81
293.15 K, 100 kPa, x2 = 0.3481 | 2.37
293.15 K, 100 kPa, x2 = 0.4401 | 2.06
293.15 K, 100 kPa, x2 = 0.5592 | 1.69
293.15 K, 100 kPa, x2 = 0.6501 | 1.46
293.15 K, 100 kPa, x2 = 0.7414 | 1.28
293.15 K, 100 kPa, x2 = 0.8502 | 1.1
293.15 K, 100 kPa, x2 = 0.9414 | 1.02
298.15 K, 101 kPa, x1 = 0.0229 | 0.889
298.15 K, 101 kPa, x1 = 0.0543 | 0.908
298.15 K, 101 kPa, x1 = 0.14 | 0.991
298.15 K, 101 kPa, x1 = 0.2319 | 1.064
298.15 K, 101 kPa, x1 = 0.3975 | 1.326
298.15 K, 101 kPa, x1 = 0.5045 | 1.548
298.15 K, 101 kPa, x1 = 0.6384 | 1.974
298.15 K, 101 kPa, x1 = 0.7129 | 2.264
298.15 K, 101 kPa, x1 = 0.8283 | 2.738
298.15 K, 101 kPa, x1 = 0.904 | 3.066
303.15 K, 100 kPa, x2 = 0.0815 | 2.7
303.15 K, 100 kPa, x2 = 0.1623 | 2.41
303.15 K, 100 kPa, x2 = 0.2416 | 2.15
303.15 K, 100 kPa, x2 = 0.3481 | 1.84
303.15 K, 100 kPa, x2 = 0.4401 | 1.61
303.15 K, 100 kPa, x2 = 0.5592 | 1.34
303.15 K, 100 kPa, x2 = 0.6501 | 1.18
303.15 K, 100 kPa, x2 = 0.7414 | 1.05
303.15 K, 100 kPa, x2 = 0.8502 | 0.92
303.15 K, 100 kPa, x2 = 0.9414 | 0.85
303.15 K, 101 kPa, x1 = 0.6491 | 1.531
303.15 K, 101.33 kPa, x1 = 0.0977 | 0.8877
303.15 K, 101.33 kPa, x1 = 0.2165 | 0.9922
303.15 K, 101.33 kPa, x1 = 0.3008 | 1.095
303.15 K, 101.33 kPa, x1 = 0.4012 | 1.222
303.15 K, 101.33 kPa, x1 = 0.5004 | 1.388
303.15 K, 101.33 kPa, x1 = 0.6025 | 1.586
303.15 K, 101.33 kPa, x1 = 0.7049 | 1.823
303.15 K, 101.33 kPa, x1 = 0.7922 | 2.076
303.15 K, 101.33 kPa, x1 = 0.9023 | 2.447
308.15 K, 101 kPa, x1 = 0.0229 | 0.757
308.15 K, 101 kPa, x1 = 0.0543 | 0.772
308.15 K, 101 kPa, x1 = 0.14 | 0.822
308.15 K, 101 kPa, x1 = 0.2319 | 0.894
308.15 K, 101 kPa, x1 = 0.3975 | 1.078
308.15 K, 101 kPa, x1 = 0.5045 | 1.248
308.15 K, 101 kPa, x1 = 0.6384 | 1.537
308.15 K, 101 kPa, x1 = 0.6491 | 1.452
308.15 K, 101 kPa, x1 = 0.7129 | 1.732
308.15 K, 101 kPa, x1 = 0.8283 | 2.09
308.15 K, 101 kPa, x1 = 0.904 | 2.335
313.15 K, 100 kPa, x2 = 0.0815 | 2.08
313.15 K, 100 kPa, x2 = 0.1623 | 1.88
313.15 K, 100 kPa, x2 = 0.2416 | 1.7
313.15 K, 100 kPa, x2 = 0.3481 | 1.47
313.15 K, 100 kPa, x2 = 0.4401 | 1.3
313.15 K, 100 kPa, x2 = 0.5592 | 1.11
313.15 K, 100 kPa, x2 = 0.6501 | 0.98
313.15 K, 100 kPa, x2 = 0.7414 | 0.88
313.15 K, 100 kPa, x2 = 0.8502 | 0.78
313.15 K, 100 kPa, x2 = 0.9414 | 0.72
313.15 K, 101 kPa, x1 = 0.6491 | 1.327
318.15 K, 101 kPa, x1 = 0.0229 | 0.649
318.15 K, 101 kPa, x1 = 0.0543 | 0.658
318.15 K, 101 kPa, x1 = 0.14 | 0.694
318.15 K, 101 kPa, x1 = 0.2319 | 0.758
318.15 K, 101 kPa, x1 = 0.3975 | 0.883
318.15 K, 101 kPa, x1 = 0.5045 | 1.01
318.15 K, 101 kPa, x1 = 0.6384 | 1.227
318.15 K, 101 kPa, x1 = 0.7129 | 1.364
318.15 K, 101 kPa, x1 = 0.8283 | 1.628
318.15 K, 101 kPa, x1 = 0.904 | 1.802
323.15 K, 100 kPa, x2 = 0.0815 | 1.64
323.15 K, 100 kPa, x2 = 0.1623 | 1.49
323.15 K, 100 kPa, x2 = 0.2416 | 1.36
323.15 K, 100 kPa, x2 = 0.3481 | 1.2
323.15 K, 100 kPa, x2 = 0.4401 | 1.08
323.15 K, 100 kPa, x2 = 0.5592 | 0.94
323.15 K, 100 kPa, x2 = 0.6501 | 0.85
323.15 K, 100 kPa, x2 = 0.7414 | 0.77
323.15 K, 100 kPa, x2 = 0.8502 | 0.69
323.15 K, 100 kPa, x2 = 0.9414 | 0.63
